Source: US11077184B2 (priority 2011, dated 2021)
“Also recorded” adds a separate entry of the source.

Columns and labels:
[1] = system: Purified B cells from C57BL6 mice; format: cell-based
murine DCs = conditions: cited from earlier work

Substance | proliferation of B cells ([3H]-thymidine incorporation, CPM) [1] | pro-inflammatory cytokines IL-12p40, IL-6 and TNFα produced (murine DCs)
Poly I:C | does not | 
tripalmitoyl-S-glyceryl-cysteine [Pam3Cys] | can induce potent proliferation of B cells; also recorded: capable of inducing potent proliferation of B cells | high levels
